# Measured values as given in paper PMC10611619, “[^99mTc]Tc-PentixaTec: development, extensive pre-clinical evaluation, and first human experience” (European Journal of Nuclear Medicine and Molecular Imaging, 2023).
# Where two headings read alike, the source gives them in different places. Where a SMILES comes first, the peptide text is derived from it. Bridges are numbered along the chain shown (N, C = ends). Roman numbers before positions name the chains, in order. Side-chain parts run from the residue outwards. [ ]: non-standard residue; d: D form. The star is where a group is joined. DOTA = O=C(O)CN1CCN(CC(=O)O)CCN(CC(=O)*)CCN(CC(=O)O)CC1; dTyr(3-I) = N[C@H](Cc1ccc(O)c(I)c1)C(=O)O; 2Nal = N[C@@H](Cc1ccc2ccccc2c1)C(=O)O; dNMeOrn = CN[C@H](CCCN)C(=O)O; HYNIC = NNc1ccc(C(=O)*)cn1; 4Amb = NCc1ccc(C(=O)O)cc1; Mercaptoacetyl = O=C(CS)*; 4Abz = Nc1ccc(C(=O)O)cc1; dDap = NC[C@@H](N)C(=O)O
# Key:
# [1] = Lipophilicity (logD), shake-flask n-octanol/PBS pH 7.4; format: physicochemical
# Procedure: The lipophilicity (logD, partition coefficient between n-octanol and PBS, pH 7.4) of all ^99mTc-labeled compounds in this study was determined using a modified shake-flask method as described.
# [2] = in vivo; cited from earlier work
# [3] = tested on: hCXCR4 expressing Chem-1 cells; assay: Dual tracer internalization studies with [^125I]FC-131 as internal reference; format: cell-based, human; conditions: for internalization in % of total activity / Internalization (% of reference): 90 min; for Internalization (% of reference): normalized to specific internalization of [^125I]FC-131, Chem-1 cells; for internalization area under the curve (AUC): internalization kinetics, Fig. 1
# Procedure: Dual tracer internalization studies using [^125I]FC-131 as internal reference were conducted in hCXCR4 expressing Chem-1 cells in analogy to a previously established protocol. A detailed assay protocol is provided in the supplementary material section.
# On the day prior to the experiment, Chem-1 cells were seeded in 24-well-plates at a density of app. 1·10^5 cells per well. On the day of the experiment, the culture medium was removed and the cells were washed once with 250 µL of unsupplemented medium before being left to equilibrate in 200 µL of assay medium (DMEM/F-12 containing 5% BSA) at 37°C for a minimum of 15 min before the experiment. Cells were then coincubated with the respective ^99mTc-labeled compound of interest (0.2 nM) and [^125I]FC-131 (0.2 nM) in the absence (total binding) or presence (non-specific binding) of 100 µM AMD3100 for different time points up to 120 min at 37°C (n=3 wells, respectively, per time point). Incubation was terminated by placing the plate on an ice pack for app. 1 min and by subsequent removal of the incubation medium. Cells were thoroughly rinsed with 250 µL of HBSS. After washing twice with 250 µL of ice cold acid wash buffer (0.02 M NaOAc buffered with AcOH to pH = 5), cells were lysed with 250 µL of 1 N NaOH. The lysate was tranferred to vials and combined with 250 µL of HBSS used for rinsing the wells. Quantification of the amount of free, acid-releasable and internalized ^99mTc- and ^125I-activity was performed using dual isotope protocol on a WIZARD^2® 2480 automatic γ-Counter (Perkin Elmer, Waltham MA, USA).
# All data were corrected for non-specific internalization in the presence of […] AMD3100 and were then normalized to the specific internalization observed of the standard radioligand [^125I]FC-131.
# [4] = Biodistribution in Jurkat xenograft-bearing mice, 1 h p.i.; format: in vivo; conditions: female, CB17/SCID, mouse, iv, total radioactivity, n = 5, mean ± SD
# Procedure: (§1) Female CB17/SCID mice bearing subcutaneous Jurkat human T cell lymphoma xenografts (for more detailed information, see supplemental material) were injected intravenously with the respective ^99mTc-labeled tracer (5–20 MBq, 0.1–0.2 nmol/mouse) under isofluorane anesthesia and were sacrificed at 1 h post-injection (p.i.). The organs of interest were dissected, and the activity concentration in weighed tissue samples was quantified using a WIZARD^2® 2480 automatic γ-Counter from Perkin Elmer (Waltham MA, USA). Biodistribution data are given in %iD/g and represent means ± SD (groups of n = 4–5 animals). Statistical analysis (t-test) was performed using GraphPad Prism.
# (§2) To establish tumor xenografts, Jurkat cells (2 – 3x10^7 cells) were suspended in a mixture of RPMI 1640 medium and Matrigel (1/1; v/v) (BD Biosciences, Heidelberg, Germany), and injected subcutaneously into the right shoulder of 6–10 weeks old CB17-SCID mice from either Charles River GmbH (Sulzfeld, Germany) or the in-house mouse breeding facility. As soon as tumors had grown to a diameter of 5–8 mm (4 – 10 weeks after inoculation), mice were used for the experiments.
# [5] = tested on: Jurkat xenograft bearing CB17/SCID mice; assay: as above; format: in vivo; conditions: Jurkat xenograft, n = 5, mean ± SD
# Procedure: as §1, §2
# mCXCR4 = conditions: Eµ-myc 1080 mouse lymphoma cells; cited from earlier work
# human CXCR4 (hCXCR4) = human CXCR4 (hCXCR4) (Homo sapiens, UniProt P61073); assay: Competitive binding to hCXCR4 (IC50), Jurkat cells, [^125I]FC-131 as radioligand; conditions: [^125I]FC-131 radioligand
# Sequence of human CXCR4 (hCXCR4) (P61073 whole entry): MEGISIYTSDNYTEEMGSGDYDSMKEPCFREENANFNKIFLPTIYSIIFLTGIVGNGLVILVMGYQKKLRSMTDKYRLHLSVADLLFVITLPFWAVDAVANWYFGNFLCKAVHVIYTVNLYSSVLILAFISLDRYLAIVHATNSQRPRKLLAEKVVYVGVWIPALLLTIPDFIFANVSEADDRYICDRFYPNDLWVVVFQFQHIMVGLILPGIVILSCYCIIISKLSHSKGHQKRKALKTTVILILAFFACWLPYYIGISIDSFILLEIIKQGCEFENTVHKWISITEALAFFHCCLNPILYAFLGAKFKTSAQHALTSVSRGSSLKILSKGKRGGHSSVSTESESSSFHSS
smiles,measurement,setting,value
"CN1C(=O)[C@@H](Cc2ccc(O)cc2)NC(=O)CNC(=O)[C@H](Cc2ccc3ccccc3c2)NC(=O)[C@H](CCCNC(=N)N)NC(=O)[C@H]1CCCNC(=O)c1ccc(NN)nc1 [[^99mTc]Tc-HYNIC-CPCR4, cyclo(D-Tyr-N-Me-D-Orn([^99mTc]Tc-HYNIC)-Arg-2-Nal-G), metal not drawn] (cyclo([2Nal]G[dY][dNMeOrn](HYNIC)R))",Lipophilicity (logD),[1],− 1.84
same,effective dose per unit of administered activity,[2],3.92E − 03 mSv/MBq
"C[C@@H](NC(=O)[C@@H](CCCNC(=N)N)NC(=O)[C@@H](CN)NC(=O)c1ccc(NN)nc1)C(=O)Nc1ccc(C(=O)NCCC[C@@H]2C(=O)N[C@@H](CCCNC(=N)N)C(=O)N[C@@H](Cc3ccc4ccccc4c3)C(=O)NCC(=O)N[C@H](Cc3ccc(O)cc3)C(=O)N2C)cc1 [[^99mTc]Tc-HYNIC-L6-CPCR4, metal not drawn] (cyclo([dY][dNMeOrn]([4Abz-dA-dR-dDap-HYNIC])R[2Nal]G))",internalization in % of total activity,[3],77%
same,Internalization (% of reference),[3],503 (90 min) % of reference
same,internalization area under the curve (AUC),[3],2370
same,tissue uptake at 1 h,"[4]; blood, read-out: Biodistribution Blood",1.6 ± 0.6 %ID/g
same,tissue uptake at 1 h,"[4]; femur, read-out: Biodistribution Femur",0.8 ± 0.4 %ID/g
same,tissue uptake at 1 h,"[4]; heart, read-out: Biodistribution Heart",0.8 ± 0.3 %ID/g
same,tissue uptake at 1 h,"[4]; intestines, read-out: Biodistribution Intestines",0.6 ± 0.1 %ID/g
same,tissue uptake at 1 h,"[4]; kidneys, read-out: Biodistribution Kidneys",29.5 ± 4.4 %ID/g
same,tissue uptake at 1 h,"[4]; liver, read-out: Biodistribution Liver",2.6 ± 0.2 %ID/g
same,tissue uptake at 1 h,"[4]; lung, read-out: Biodistribution Lung",1.9 ± 0.4 %ID/g
same,tissue uptake at 1 h,"[4]; muscle, read-out: Biodistribution Muscle",1.5 ± 1.1 %ID/g
same,tissue uptake at 1 h,"[4]; pancreas, read-out: Biodistribution Pancreas",0.4 ± 0.3 %ID/g
same,tissue uptake at 1 h,"[4]; spleen, read-out: Biodistribution Spleen",2.4 ± 1.1 %ID/g
same,tissue uptake at 1 h,"[4]; stomach, read-out: Biodistribution Stomach",2 ± 0.7 %ID/g
same,Biodistribution Tumor (tumor accumulation),[5],8.0 ± 2.2 %iD/g
"C[C@@H](NC(=O)[C@@H](CCCNC(=N)N)NC(=O)[C@@H](CN)NC(=O)[C@@H](CO)NC(=O)[C@@H](CO)NC(=O)[C@@H](CO)NC(=O)CS)C(=O)Nc1ccc(C(=O)NCCC[C@@H]2C(=O)N[C@@H](CCCNC(=N)N)C(=O)N[C@@H](Cc3ccc4ccccc4c3)C(=O)NCC(=O)N[C@H](Cc3ccc(O)cc3)C(=O)N2C)cc1 [[^99mTc]Tc-mas3-L6-CPCR4, metal not drawn] (I: Mercaptoacetyl-[dS][dS][dS][dDap][dR][dA][4Abz] / II: cyclo([dY][dNMeOrn]R[2Nal]G); amide I:C-II:2)",internalization in % of total activity,[3],80%
same,Internalization (% of reference),[3],525 (90 min) % of reference
same,internalization area under the curve (AUC),[3],2430
same,Biodistribution Tumor (tumor accumulation),[5],6.6 ± 1.0 %iD/g
"CN1C(=O)[C@@H](Cc2ccc(O)c(I)c2)NC(=O)CNC(=O)[C@H](Cc2ccc3ccccc3c2)NC(=O)[C@H](CCCNC(=N)N)NC(=O)[C@H]1CCCNC(=O)c1ccc(CNC(=O)CN2CCN(CC(=O)O)CCN(CC(=O)O)CCN(CC(=O)O)CC2)cc1 [^natLu-PentixaTher, metal not drawn] (cyclo([dTyr(3-I)][dNMeOrn]([4Amb-DOTA])R[2Nal]G); ring closure inferred)",IC50,mCXCR4,567 ± 62 nM
"C[C@@H](NC(=O)[C@@H](CCCNC(=N)N)NC(=O)[C@@H](CN)NC(=O)[C@@H](CO)NC(=O)[C@@H](CO)NC(=O)[C@@H](CO)NC(=O)CS)C(=O)Nc1ccc(C(=O)NCCC[C@@H]2C(=O)N[C@@H](CCCNC(=N)N)C(=O)N[C@@H](Cc3ccc4ccccc4c3)C(=O)NCC(=O)N[C@H](Cc3ccc(O)cc3)C(=O)N2C)cc1 [mas3-L6-CPCR4, mas3-dap-r-a-Abz-CPCR4] (I: Mercaptoacetyl-[dS][dS][dS][dDap][dR][dA][4Abz] / II: cyclo([dY][dNMeOrn]R[2Nal]G); amide I:C-II:2)",IC50,human CXCR4 (hCXCR4),5 ± 1.3 nM
